# Patent US7718808B2, “Thiazole derivatives” (Kyowa Hakko Kirin Co., Ltd., priority 2003, dated 2010)
row,SMILES,melting point
1,"O=C(Nc1nc(-c2ccco2)c(C(=O)c2ccco2)s1)c1ccncc1 [Compound 342, N-[4-(2-Furyl)-5-(furan-2-ylcarbonyl)thiazol-2-yl]pyridine-4-carboxamide]",245 to 248 °C
2,"Cc1ccc(C(=O)c2sc(NC(=O)c3ccncc3)nc2-c2ccco2)o1 [Compound 343, N-[4-(2-Furyl)-5-(5-methylfuran-2-ylcarbonyl)thiazol-2-yl]pyridine-4-carboxamide]",185 to 189 °C
3,"O=C(Nc1nc(-c2ccco2)c(C(=O)c2ccoc2)s1)c1ccncc1 [Compound 346, N-[4-(2-furyl)-5-(furan-3-ylcarbonyl)thiazol-2-yl]pyridine-4-carboxamide]",217 to 231 °C
4,"O=C(Nc1nc(-c2ccco2)c(C(=O)c2cccs2)s1)c1ccncc1 [Compound 347, N-[4-(2-Furyl)-5-(thiophen-2-ylcarbonyl)thiazol-2-yl]pyridine-4-carboxamide]",208 to 210 °C
5,"Cc1cnc(C(=O)c2sc(NC(=O)c3ccncc3)nc2-c2ccco2)s1 [Compound 349, N-[4-(2-Furyl)-5-(5-methylthiazol-2-ylcarbonyl)thiazol-2-yl]pyridine-4-carboxamide]",275 to 277 °C (dec.)
6,"Cc1csc(C(=O)c2sc(NC(=O)c3ccncc3)nc2-c2ccco2)n1 [Compound 350, N-[4-(2-Furyl)-5-(4-methylthiazol-2-ylcarbonyl)thiazol-2-yl]pyridine-4-carboxamide]",250 to 255 °C
7,"Cc1nc(C(=O)c2sc(NC(=O)c3ccncc3)nc2-c2ccco2)sc1C [Compound 351, N-[5-(4,5-Dimethylthiazol-2-ylcarbonyl)-4-(2-furyl)thiazol-2-yl]pyridine-4-carboxamide]",270 to 272 °C (dec.)
8,"Cn1ccc(C(=O)c2sc(NC(=O)c3ccncc3)nc2-c2ccco2)c1 [Compound 354, N-[4-(2-Furyl)-5-(1-methylpyrrol-3-ylcarbonyl)thiazol-2-yl]pyridine-4-carboxamide]",209 to 211 °C
9,"CCn1ccc(C(=O)c2sc(NC(=O)c3ccncc3)nc2-c2ccco2)c1 [Compound 355, N-[5-(1-Ethylpyrrol-3-ylcarbonyl)-4-(2-furyl)thiazol-2-yl]pyridine-4-carboxamide]",127 to 134 °C
10,"O=C(Nc1nc(-c2ccco2)c(C(=O)c2ccn(Cc3ccccc3)c2)s1)c1ccncc1 [Compound 356, N-[5-(1-Benzylpyrrol-3-ylcarbonyl)-4-(2-furyl)thiazol-2-yl]pyridine-4-carboxamide]",175 to 178 °C
11,"Cn1cc(C(=O)c2sc(NC(=O)c3ccncc3)nc2-c2ccco2)ccc1=O [Compound 360, N-[4-(2-Furyl)-5-(1-methyl-2-oxo-1,2-dihydropyridin-5-ylcarbonyl)thiazol-2-yl]pyridine-4-carboxamide]",294 to 295 °C
12,"CCn1cc(C(=O)c2sc(NC(=O)c3ccncc3)nc2-c2ccco2)ccc1=O [Compound 362, N-[5-(1-Ethyl-2-oxo-1,2-dihydropyridin-5-ylcarbonyl)-4-(2-furyl)thiazol-2-yl]pyridine-4-carboxamide]",295 to 296 °C
13,"O=C(Nc1nc(-c2ccco2)c(C(=O)c2ccc(=O)n(Cc3ccccc3)c2)s1)c1ccncc1 [Compound 364, N-[5-(1-Benzyl-2-oxo-1,2-dihydropyridin-5-ylcarbonyl)-4-(2-furyl)thiazol-2-yl]pyridine-4-carboxamide]",265 to 282 °C (dec.)
14,"Cn1ccc(C(=O)c2sc(NC(=O)c3ccncc3)nc2-c2ccco2)cc1=O [Compound 367, N-[4-(2-Furyl)-5-(1-methyl-2-oxo-1,2-dihydropyridin-4-ylcarbonyl)thiazol-2-yl]pyridine-4-carboxamide]",243 to 255 °C (dec.)
15,"CCn1ccc(C(=O)c2sc(NC(=O)c3ccncc3)nc2-c2ccco2)cc1=O [Compound 369, N-[5-(1-Ethyl-2-oxo-1,2-dihydropyridin-4-ylcarbonyl)-4-(2-furyl)thiazol-2-yl]pyridine-4-carboxamide]",277 to 281 °C
16,"O=C(Nc1nc(-c2ccco2)c(C(=O)c2ccn(Cc3ccccc3)c(=O)c2)s1)c1ccncc1 [Compound 371, N-[5-(1-Benzyl-2-oxo-1,2-dihydropyridin-4-ylcarbonyl)-4-(2-furyl)thiazol-2-yl]pyridine-4-carboxamide]",288 to 291 °C
17,"O=C(Nc1nc(-c2ccco2)c(C(=O)c2cnccn2)s1)c1ccncc1 [Compound 374, N-[4-(2-Furyl)-5-(pyrazin-2-ylcarbonyl)thiazol-2-yl]pyridine-4-carboxamide]",> 300 °C
18,"O=C(Nc1nc(-c2ccco2)c(C(=O)c2ccncn2)s1)c1ccncc1 [Compound 375, N-[4-(2-Furyl)-5-(pyrimidin-4-ylcarbonyl)thiazol-2-yl]pyridine-4-carboxamide]",> 300 °C
19,"O=C(Nc1nc(-c2ccco2)c(C(=O)c2cccnn2)s1)c1ccncc1 [Compound 376, N-[4-(2-Furyl)-5-(pyridazin-3-ylcarbonyl)thiazol-2-yl]pyridine-4-carboxamide]",280 to 281 °C
20,"CC(=O)c1sc(NC(=O)c2ccncc2)nc1-c1ccco1 [Compound 377, N-[5-Acetyl-4-(2-furyl)thiazol-2-yl]pyridine-4-carboxamide]",252 to 259 °C (dec.)
21,"O=C(Nc1nc(-c2ccco2)c(C(=O)C(F)(F)F)s1)c1ccncc1 [Compound 380, N-[4-(2-Furyl)-5-(trifluoroacetyl)thiazol-2-yl]pyridine-4-carboxamide]",268 to 270 °C
22,"CCC(=O)c1sc(NC(=O)c2ccncc2)nc1-c1ccco1 [Compound 381, N-[4-(2-Furyl)-5-propionylthiazol-2-yl]pyridine-4-carboxamide]",225 to 240 °C (dec.)
23,"CCCC(=O)c1sc(NC(=O)c2ccncc2)nc1-c1ccco1 [Compound 382, N-[5-Butyryl-4-(2-furyl)thiazol-2-yl]pyridine-4-carboxamide]",191 to 194 °C
24,"CCCC(=O)c1sc(NC(=O)C2CC2)nc1-c1ccco1 [Compound 385, N-[5-Butyryl-4-(2-furyl)thiazol-2-yl]cyclopropanecarboxamide]",170 to 172 °C
25,"CC(C)C(=O)c1sc(N)nc1-c1ccco1 [Compound 392, 2-Amino-4-(2-furyl)thiazol-5-yl isopropyl ketone]",195 to 199 °C
26,"CC(C)C(=O)c1sc(NC(=O)c2ccncc2)nc1-c1ccco1 [Compound 393, N-[4-(2-Furyl)-5-isobutyrylthiazol-2-yl]pyridine-4-carboxamide]",179 to 182 °C
27,"CC(C)C(=O)c1sc(NC(=O)C2CC2)nc1-c1ccco1 [Compound 394, N-[4-(2-Furyl)-5-isobutyrylthiazol-2-yl]cyclopropane carboxamide]",178 to 182 °C
28,"CC(C)(C)C(=O)c1sc(NC(=O)c2ccncc2)nc1-c1ccco1 [Compound 400, N-[4-(2-Furyl)-5-pivaloylthiazol-2-yl]pyridine-4-carboxamide]",240 to 245 °C
29,"CC(C)(C)C(=O)c1sc(NC(=O)C2CC2)nc1-c1ccco1 [Compound 401, N-[4-(2-Furyl)-5-pivaloylthiazol-2-yl]cyclopropanecarboxamide]",133 to 134 °C
